Data reported in paper PMC5739597, “Discovery and evaluation of triple inhibitors of VEGFR-2, TIE-2 and EphB4 as anti-angiogenic and anti-cancer agents” (Oncotarget, 2017).
Like-named read-outs stand apart in the source and are kept apart here.

What was measured:
c-Kit = c-Kit (Homo sapiens, UniProt P10721); test: Kinase-Glo Plus RTK selectivity assay, c-Kit; type: biochemical; conditions: 10 μM ATP
Protocol: (§1) A 50 μL reaction mixture contains 40 mM Tris, pH 7.4, 10 mM MgCl2, 0.1 mg/ml BSA, 1 mM DTT, 10 μM ATP, kinase and substrate (0.2 mg/mL Poly(Glu, Tyr)/10 μM ATP). The test compounds were diluted in 10% DMSO and 5 μL of the dilution was added to a 50 μL reaction so that the final concentration of DMSO is 1% in all of reactions. The assay was performed using Kinase-Glo Plus luminescence kinase assay kit. It measures kinase activity by quantitating the amount of ATP remaining in solution following a kinase reaction. The luminescent signal from the assay is correlated with the amount of ATP present and is inversely correlated with the amount of kinase activity. The IC50 values were calculated using nonlinear regression with normalized dose−response fit using Prism GraphPad software.

EA.hy926 = test: Human endothelial cell (EA.hy926) viability assay, CCK-8; type: cell-based; conditions: CCK-8, 24 h treatment, read-out: Inhibition of human endothelial cell viability, EA.hy926 IC50
Protocol: In order to determine the anti-angiogenic effect of these multi-target inhibitors, we evaluated their effect on HECs (EA.hy926) viability using cell counting kit-8 (CCK-8) method.
The viability of HECs (EA.hy926) was assessed using the cell counting kit-8 (CCK-8, Sigma, USA) assay according to the manufacturer's instruction. […] After incubation at 37°C for 48 h, the cells were treated with tested compounds at various concentrations for 24 h. Subsequently, premixed CCK-8 and medium (10 μL) were added into the 96-well plates to monitor cell viability and were incubated at 37°C for 2 h. The number of viable cells was assessed by measurement of absorbance at 450 nm by a microplate reader. The viability rate was calculated as experimental OD value/control OD value.

B-Raf = B-Raf (Homo sapiens, UniProt P15056); test: Kinase-Glo Plus RTK selectivity assay, B-Raf; type: biochemical; conditions: 10 μM ATP
B-Raf, sequence (P15056 whole entry, species assumed): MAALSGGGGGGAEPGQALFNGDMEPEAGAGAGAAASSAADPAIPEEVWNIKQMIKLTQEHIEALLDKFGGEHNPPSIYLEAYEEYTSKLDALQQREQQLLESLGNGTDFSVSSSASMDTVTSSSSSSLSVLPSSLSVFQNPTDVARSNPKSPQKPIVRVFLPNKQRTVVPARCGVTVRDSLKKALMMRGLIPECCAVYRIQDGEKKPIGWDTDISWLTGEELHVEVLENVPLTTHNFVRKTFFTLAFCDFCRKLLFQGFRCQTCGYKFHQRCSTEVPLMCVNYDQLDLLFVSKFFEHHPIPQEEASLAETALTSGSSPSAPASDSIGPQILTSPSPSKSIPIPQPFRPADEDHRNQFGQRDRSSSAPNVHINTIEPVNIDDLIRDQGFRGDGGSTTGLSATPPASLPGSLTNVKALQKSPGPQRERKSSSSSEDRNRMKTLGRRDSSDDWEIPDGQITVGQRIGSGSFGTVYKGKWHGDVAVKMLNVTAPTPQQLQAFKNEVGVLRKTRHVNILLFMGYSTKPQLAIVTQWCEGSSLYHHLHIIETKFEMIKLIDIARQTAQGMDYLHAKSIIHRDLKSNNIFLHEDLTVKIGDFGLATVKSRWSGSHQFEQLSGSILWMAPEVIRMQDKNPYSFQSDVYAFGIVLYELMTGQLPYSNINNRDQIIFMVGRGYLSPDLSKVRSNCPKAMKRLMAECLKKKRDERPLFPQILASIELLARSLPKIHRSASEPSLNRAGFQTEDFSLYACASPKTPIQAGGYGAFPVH
Protocol: as §1

VEGFR-1 = VEGFR-1 (Homo sapiens, UniProt P17948); test: Kinase-Glo Plus RTK selectivity assay, VEGFR-1; type: biochemical; conditions: 10 μM ATP
VEGFR-1, sequence (P17948 27-1338, species assumed): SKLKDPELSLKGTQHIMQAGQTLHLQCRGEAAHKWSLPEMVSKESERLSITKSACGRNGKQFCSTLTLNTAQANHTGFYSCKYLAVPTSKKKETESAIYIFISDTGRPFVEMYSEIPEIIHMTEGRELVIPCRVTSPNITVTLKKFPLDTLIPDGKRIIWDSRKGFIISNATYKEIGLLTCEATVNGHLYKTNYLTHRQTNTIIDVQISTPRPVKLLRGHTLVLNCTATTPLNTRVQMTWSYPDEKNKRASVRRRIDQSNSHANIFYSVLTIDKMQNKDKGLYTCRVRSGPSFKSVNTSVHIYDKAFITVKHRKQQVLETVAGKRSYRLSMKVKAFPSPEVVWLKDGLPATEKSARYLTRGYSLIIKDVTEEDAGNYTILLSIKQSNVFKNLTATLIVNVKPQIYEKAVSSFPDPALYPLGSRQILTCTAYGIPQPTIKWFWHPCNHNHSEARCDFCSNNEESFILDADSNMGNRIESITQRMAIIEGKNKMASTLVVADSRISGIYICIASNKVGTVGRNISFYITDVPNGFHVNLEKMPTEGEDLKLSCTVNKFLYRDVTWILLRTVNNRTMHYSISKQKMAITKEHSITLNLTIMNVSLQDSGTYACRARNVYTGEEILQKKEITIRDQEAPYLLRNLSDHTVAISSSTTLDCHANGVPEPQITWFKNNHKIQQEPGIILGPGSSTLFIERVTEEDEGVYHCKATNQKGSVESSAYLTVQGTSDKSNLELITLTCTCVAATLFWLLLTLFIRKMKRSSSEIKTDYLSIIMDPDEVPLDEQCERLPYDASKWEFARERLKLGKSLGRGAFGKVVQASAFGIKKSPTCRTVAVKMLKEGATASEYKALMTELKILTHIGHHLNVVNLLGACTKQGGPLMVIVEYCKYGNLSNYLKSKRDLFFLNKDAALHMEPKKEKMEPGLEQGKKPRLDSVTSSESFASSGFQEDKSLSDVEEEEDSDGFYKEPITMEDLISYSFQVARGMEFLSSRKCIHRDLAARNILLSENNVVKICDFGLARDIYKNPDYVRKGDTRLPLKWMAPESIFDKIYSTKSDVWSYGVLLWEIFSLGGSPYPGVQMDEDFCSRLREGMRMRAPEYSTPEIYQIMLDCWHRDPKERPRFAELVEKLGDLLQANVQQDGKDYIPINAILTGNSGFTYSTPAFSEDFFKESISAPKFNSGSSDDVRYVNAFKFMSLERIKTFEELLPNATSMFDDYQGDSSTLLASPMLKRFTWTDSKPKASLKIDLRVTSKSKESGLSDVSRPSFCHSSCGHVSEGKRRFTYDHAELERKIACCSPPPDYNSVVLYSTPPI
Protocol: as §1

FGFR-4 = FGFR-4 (Homo sapiens, UniProt P22455); test: Kinase-Glo Plus RTK selectivity assay, FGFR-4; type: biochemical; conditions: 10 μM ATP
Protocol: as §1

TIE-2 = TIE-2 (Homo sapiens, UniProt Q02763); test: ADP-Glo in vitro RTK inhibition assay, TIE-2; type: biochemical; conditions: ATP 50 μM
Protocol: (§2) In order to validate the direct effect of title compounds on VEGFR-2, Tie-2, and EphB4 kinases, we performed in vitro assay using the ADP-Glo Kinase Assay Kit (Promega, Wisconsin, USA).
(§3) The kinase assay was performed in a reaction mixture of final volume of 10 μL. […] The plate was incubated at 30°C for 1 h. After the plate was cooled at room temperature for 5 min, 5 μL of ADP-Glo reagent was added into each well to stop the reaction and consume the remaining […] within 40 min. At the end, 10 μL of kinase detection reagent was added into the well and incubated for 30 min to produce a luminescence signal. […] The assay plate was incubated at 30°C for 4 h. After the plate was cooled at room temperature for 5 min, 5 μL of ADP-Glo reagent was added into each well to stop the reaction and consume the remaining […] within 1 h. At the end, 10 μL of kinase detection reagent was added into each well and incubated for 30 min to produce a luminescence signal. The luminescence was read by VICTOR-X multi-label plate reader.

EGFR = EGFR (Homo sapiens, UniProt P00533); test: Kinase-Glo Plus RTK selectivity assay, EGFR; type: biochemical; conditions: 10 μM ATP
EGFR, sequence (P00533 25-1210, species assumed): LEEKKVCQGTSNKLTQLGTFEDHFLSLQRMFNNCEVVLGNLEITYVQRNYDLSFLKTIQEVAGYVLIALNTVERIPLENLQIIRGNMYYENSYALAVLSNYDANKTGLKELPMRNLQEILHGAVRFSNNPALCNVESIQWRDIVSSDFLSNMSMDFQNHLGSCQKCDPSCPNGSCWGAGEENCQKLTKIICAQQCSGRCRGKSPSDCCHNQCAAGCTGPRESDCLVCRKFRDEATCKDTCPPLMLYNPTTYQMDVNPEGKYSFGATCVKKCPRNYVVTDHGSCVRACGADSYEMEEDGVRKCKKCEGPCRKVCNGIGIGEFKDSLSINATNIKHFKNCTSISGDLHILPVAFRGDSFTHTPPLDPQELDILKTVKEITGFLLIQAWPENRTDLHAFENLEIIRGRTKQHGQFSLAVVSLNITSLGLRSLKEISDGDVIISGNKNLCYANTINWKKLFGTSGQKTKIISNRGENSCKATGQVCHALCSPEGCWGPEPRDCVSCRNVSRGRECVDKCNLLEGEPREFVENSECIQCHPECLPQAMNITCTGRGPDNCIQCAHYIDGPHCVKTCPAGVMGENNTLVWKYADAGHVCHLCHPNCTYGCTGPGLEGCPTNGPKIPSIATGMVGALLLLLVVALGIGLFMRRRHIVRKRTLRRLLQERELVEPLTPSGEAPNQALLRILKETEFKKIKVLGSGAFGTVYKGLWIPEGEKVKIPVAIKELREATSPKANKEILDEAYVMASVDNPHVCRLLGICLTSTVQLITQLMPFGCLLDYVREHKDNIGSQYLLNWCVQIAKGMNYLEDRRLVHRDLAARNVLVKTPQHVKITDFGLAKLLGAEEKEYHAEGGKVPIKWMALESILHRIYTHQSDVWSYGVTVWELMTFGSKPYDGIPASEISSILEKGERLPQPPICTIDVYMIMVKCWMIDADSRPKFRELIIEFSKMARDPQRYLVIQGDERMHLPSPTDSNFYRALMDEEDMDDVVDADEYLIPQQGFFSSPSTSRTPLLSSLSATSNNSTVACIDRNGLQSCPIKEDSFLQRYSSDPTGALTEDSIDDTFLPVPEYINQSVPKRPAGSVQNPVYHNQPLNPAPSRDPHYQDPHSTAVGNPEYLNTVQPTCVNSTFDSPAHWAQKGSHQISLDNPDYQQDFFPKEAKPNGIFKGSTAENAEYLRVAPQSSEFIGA
Protocol: as §1

VEGFR-2 [1] = biological target: T1, VEGFR-2 (Homo sapiens, UniProt P35968); test: ADP-Glo in vitro RTK inhibition assay, VEGFR-2; type: biochemical; conditions: ATP 50 μM
T1 sequence (P35968 20-1356): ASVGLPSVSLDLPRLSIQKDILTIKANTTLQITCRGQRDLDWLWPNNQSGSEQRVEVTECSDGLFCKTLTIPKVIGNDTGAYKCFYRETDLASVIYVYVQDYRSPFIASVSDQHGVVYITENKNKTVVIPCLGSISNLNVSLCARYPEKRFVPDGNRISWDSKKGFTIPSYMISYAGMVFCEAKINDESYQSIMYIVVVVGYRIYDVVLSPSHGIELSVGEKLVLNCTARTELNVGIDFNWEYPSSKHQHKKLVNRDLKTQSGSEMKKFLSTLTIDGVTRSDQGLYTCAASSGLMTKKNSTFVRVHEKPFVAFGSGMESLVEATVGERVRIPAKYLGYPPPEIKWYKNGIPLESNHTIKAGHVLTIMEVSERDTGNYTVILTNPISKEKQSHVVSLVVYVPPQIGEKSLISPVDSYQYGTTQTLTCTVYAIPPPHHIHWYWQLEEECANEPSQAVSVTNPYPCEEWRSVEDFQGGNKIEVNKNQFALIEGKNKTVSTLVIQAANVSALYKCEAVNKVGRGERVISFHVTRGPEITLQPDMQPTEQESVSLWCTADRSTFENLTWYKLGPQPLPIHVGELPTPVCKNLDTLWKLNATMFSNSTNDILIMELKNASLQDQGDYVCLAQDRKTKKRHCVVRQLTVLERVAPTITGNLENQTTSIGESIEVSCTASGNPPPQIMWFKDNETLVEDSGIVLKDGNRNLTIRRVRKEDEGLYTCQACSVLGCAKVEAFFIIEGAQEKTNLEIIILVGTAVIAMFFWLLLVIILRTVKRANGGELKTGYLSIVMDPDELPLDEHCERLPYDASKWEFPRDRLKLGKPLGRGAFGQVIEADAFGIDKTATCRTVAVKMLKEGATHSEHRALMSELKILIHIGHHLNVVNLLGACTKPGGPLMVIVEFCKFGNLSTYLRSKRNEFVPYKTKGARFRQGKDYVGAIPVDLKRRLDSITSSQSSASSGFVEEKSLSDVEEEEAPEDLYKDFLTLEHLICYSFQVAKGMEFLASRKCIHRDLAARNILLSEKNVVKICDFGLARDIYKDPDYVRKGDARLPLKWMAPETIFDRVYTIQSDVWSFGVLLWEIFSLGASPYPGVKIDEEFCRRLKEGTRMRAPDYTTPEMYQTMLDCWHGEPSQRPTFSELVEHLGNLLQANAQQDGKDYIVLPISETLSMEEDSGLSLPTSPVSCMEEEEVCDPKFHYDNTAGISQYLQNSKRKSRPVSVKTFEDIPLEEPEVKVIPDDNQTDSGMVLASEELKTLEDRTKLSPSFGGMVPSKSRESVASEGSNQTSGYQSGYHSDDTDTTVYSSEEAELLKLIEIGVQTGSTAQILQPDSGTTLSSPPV
Protocol: as §2, §3

EphB4 = biological target: T2, EphB4 (Homo sapiens, UniProt P54760); test: ADP-Glo in vitro RTK inhibition assay, EphB4; type: biochemical; conditions: ATP 50 μM
T2 sequence (P54760 16-987): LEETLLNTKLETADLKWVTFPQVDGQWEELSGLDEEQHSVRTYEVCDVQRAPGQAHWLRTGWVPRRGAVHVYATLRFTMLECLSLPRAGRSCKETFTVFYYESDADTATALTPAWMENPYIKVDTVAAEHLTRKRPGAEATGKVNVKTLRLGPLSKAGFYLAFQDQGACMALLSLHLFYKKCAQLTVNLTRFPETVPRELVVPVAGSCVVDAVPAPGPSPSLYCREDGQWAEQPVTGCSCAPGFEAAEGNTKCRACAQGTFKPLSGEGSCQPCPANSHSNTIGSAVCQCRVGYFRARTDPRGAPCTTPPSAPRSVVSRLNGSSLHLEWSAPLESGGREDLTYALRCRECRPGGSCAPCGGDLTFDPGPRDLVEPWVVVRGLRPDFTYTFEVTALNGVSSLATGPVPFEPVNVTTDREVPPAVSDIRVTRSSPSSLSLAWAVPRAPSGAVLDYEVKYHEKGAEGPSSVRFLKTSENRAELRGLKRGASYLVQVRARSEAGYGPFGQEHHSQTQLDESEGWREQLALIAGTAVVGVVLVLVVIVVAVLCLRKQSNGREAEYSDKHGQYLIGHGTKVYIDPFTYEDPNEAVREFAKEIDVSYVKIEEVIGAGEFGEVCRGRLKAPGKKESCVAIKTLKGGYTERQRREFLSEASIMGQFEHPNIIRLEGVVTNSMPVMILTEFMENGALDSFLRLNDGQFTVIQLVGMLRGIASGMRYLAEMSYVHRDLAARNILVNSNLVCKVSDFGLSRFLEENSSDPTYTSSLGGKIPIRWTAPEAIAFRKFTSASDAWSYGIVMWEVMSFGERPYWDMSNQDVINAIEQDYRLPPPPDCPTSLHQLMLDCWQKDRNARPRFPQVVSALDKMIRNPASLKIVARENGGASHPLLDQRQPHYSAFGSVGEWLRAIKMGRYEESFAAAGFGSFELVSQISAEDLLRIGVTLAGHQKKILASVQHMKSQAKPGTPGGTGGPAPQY
Protocol: as §2, §3

FGFR-1 = FGFR-1 (Homo sapiens, UniProt P11362); test: Kinase-Glo Plus RTK selectivity assay, FGFR-1; type: biochemical; conditions: 10 μM ATP
Protocol: The assay was performed using Kinase-Glo Plus luminescence kinase assay kit. It measures kinase activity by quantitating the amount of ATP remaining in solution following a kinase reaction. The luminescent signal from the assay is correlated with the amount of ATP present and is inversely correlated with the amount of kinase activity.

VEGFR-2 [2] = biological target: T1, VEGFR-2; test: VEGFR-2/cell membrane chromatography (CMC) affinity evaluation; type: binding; conditions: flow rate 0.6 mL/min, 37°C, 5 mM PBS pH 7.4, 270 nm
Protocol: In previous studies, artificial cultures highly expressing VEGFR-2 on HEK293 cell lines were constructed. […] Chromatographic conditions: 10 mm×2.0 mm; flow rate0.6 mL/min; column temperature 37°C; mobile phase 5 mM PBS, pH 7.4; detection wavelength 270 nm.
The VEGFR-2 cell membrane stationary phase was prepared as previous reported. Aqueous ammonium acetate buffer solution (pH 7.4, 5 mM) was pumped at a flow rate of 0.2 mL/min as the mobile phase after VEGFR-2/CMC column was loaded onto the chromatography system at the temperature of 37°C. […] The mobile phase was 5.0 mM phosphate burred saline with a 0.6 mL/min flow rate at a column temperature of 37°C. The detected wavelength was 270 nm. The test compound was injected into the VEGFR-2/CMC column and their retention characteristics were identified to evaluate their affinity with VEGFR-2.

Row | IC50 (c-Kit) [nM] | melting point [°C] | IC50 (B-Raf) [nM] | IC50 (VEGFR-1) [nM] | IC50 (FGFR-4) [nM] | IC50 (TIE-2) [nM] | IC50 (EGFR) [nM] | IC50 (VEGFR-2 [1]) [nM] | IC50 (EphB4) [nM] | IC50 (FGFR-1) [nM] | Retention time on VEGFR-2/cell membrane stationary phase column (VEGFR-2 [2]) [min] | Structure (SMILES) | IC50 (EA.hy926) [nM] | IC50 (EA.hy926; Homo sapiens, EA.hy 926, 24 h) [nM]
1 | > 500 | > 300 | 136 | 68.3 | 83.4 | 4.91 | 113 | 1.91 | 13.9 | 166 | – | O=C(Nc1ccc(-c2ccc3c(=O)[nH]cnc3c2)cc1)Nc1ccccc1F [QDAU4, 1-(2-fluorophenyl)-3-(4-(4-oxo-3,4-dihydroquinazolin-7-yl)phenyl)urea] | 8640 | < 10000
2 | – | – | – | – | – | – | – | – | – | – | 4.5 | COc1cc2c(Nc3ccc(Br)cc3F)ncnc2cc1OCC1CCN(C)CC1 [vandetanib, reference compound] | – | –
